Reference: publication PMC3511013, “Dimerization of a cell-penetrating peptide leads to enhanced cellular uptake and drug delivery” (Beilstein Journal of Organic Chemistry, 2012)
Bridge positions count the residues as written; N and C are the ends. Ends that are not written are not given here. Peptide text beside a SMILES is read from it. I, II: the chains in the order shown. * marks the point of attachment. Chlorambucil = O=C(CCCc1ccc(N(CCCl)CCCl)cc1)*

What was measured:
HT-29 cells [1] = details: cited from earlier work
Protocol: (§3) The effect of the dimeric sC18 on the survival of HEK-293, HT-29 and MCF-7 cells was determined by means of a resazurin-based cell viability assay.

MCF-7 cells [2] = details: cited from earlier work
Protocol: as §3

[3] = system: human adipose tissue-derived stem cells (hADSC); assay: Fluorescence microscopic uptake study in primary cells; assay type: cell-based; details: 1 h
Protocol: For fluorescence microscopic uptake studies, cells were seeded in an 8-well ibidi plate and grown to 60–70% confluence. […] Ten minutes prior to the end of incubation, the nuclei were stained by addition of Hoechst33342 nuclear dye. Finally, the solution was removed, and the cells were treated with a 150 µM trypan blue solution for 0.5 min. After washing twice with PBS, images were taken by using a Zeiss Observer Z1 fluorescence microscope equipped with an ApoTome unit using a 63× oil immersion objective.

MCF-7 cells [4] = assay: Flow cytometric cellular uptake of carboxyfluorescein-labeled peptides; assay type: cell-based, human; details: 1 h, flow cytometry; for cellular uptake at 1 µM: MCF-7, CF-labeled peptide 1 µM
Protocol: (§1) For peptide-uptake studies by flow cytometry, cells were seeded in a 48-well plate and grown to 60–70% confluence. After incubation at 37 °C for 1 h with 5(6)-carboxyfluorescein-labeled peptides in OptiMEM, the cells were treated with 150 µM trypan blue for 0.5 min to quench extracellular fluorescence and washed twice with PBS, trypsinized and resuspended in standard cell-culture medium. Analyses were performed on a Partec CyFlow ML flow cytometer. Cellular autofluorescence was subtracted. The experiments were carried out with n (number of experiments) = 2 in duplicate.

HT-29 cells [5] = assay: as above; assay type: cell-based, human; details: 1 h, flow cytometry; for cellular uptake at 1 µM: HT-29, CF-labeled peptide 1 µM
Protocol: as §1

HEK-293 cells [6] = assay: as above; assay type: cell-based, human; details: 1 h, flow cytometry; for cellular uptake at 1 µM: HEK-293, CF-labeled peptide 1 µM
Protocol: as §1

HEK-293 cells [7] = assay: Fluorescence microscopic uptake study; assay type: cell-based, human; details: unfixed HEK-293, 1 µM CF-labeled peptide, 30 min, fluorescence microscopy
Protocol: For fluorescence microscopic uptake studies, cells were seeded in an 8-well ibidi plate and grown to 60–70% confluence. The cells were then incubated with CF-labeled peptides in OptiMEM for 30 min at 37 °C. Ten minutes prior to the end of incubation, the nuclei were stained by addition of Hoechst33342 nuclear dye. Finally, the solution was removed, and the cells were treated with a 150 µM trypan blue solution for 0.5 min. After washing twice with PBS, images were taken by using a Zeiss Observer Z1 fluorescence microscope equipped with an ApoTome unit using a 63× oil immersion objective.

MCF-7 cells [8] = assay: LDH release (membrane integrity) assay
Protocol: (§4) For the membrane leakage assay utilizing the Promega CytoTox-One kit, cells were seeded in a 96-well plate, grown to subconfluency, and incubated with the substances at different concentrations for 1 h in the presence of serum under standard growth conditions. Afterwards, the assay was conducted according to the manufacturer’s protocol including the provided cell lysis positive control. Measurement was performed fluorimetrically at 595 nm (λex = 550 nm) on a Tecan SpectraFluor Plus plate reader. The negative control served as blank value, and data were normalized to the positive control. Experiments were carried out with n = 2 in triplicate.

HT-29 cells [9] = assay: Resazurin-based cell viability assay; design: species or system human; details: n = 2 in triplicate; for IC50: resazurin-based cell viability, 24 h incubation, in the presence of serum, nonlinear regression, ± spread
Protocol: (§2) Untreated cells were set to 100%. […] Experiments were carried out with n = 2 in triplicate.

HT-29 cells [10] = assay: LDH release (membrane integrity) assay; details: HT-29, 1 h incubation
Protocol: as §4

MCF-7 cells [11] = assay: Resazurin-based cell viability assay; details: n = 2 in triplicate; for IC50: read-out: IC50 MCF-7, resazurin-based cell viability, 24 h incubation, in the presence of serum, nonlinear regression, ± spread
Protocol: Cytotoxicity was determined by means of a resazurin-based cell-viability assay. Cells were seeded in a 96-well plate, grown to subconfluency and incubated with the substances at different concentrations for 24 h in the presence of serum under standard growth conditions. For the positive control, cells were treated with 70% ethanol for 10 min. After washing, the cell viability was determined relative to untreated cells by using the In Vitro Toxicology Assay Kit from Sigma-Aldrich according to the manufacturer’s protocol. Measurement was performed fluorimetrically at 595 nm (λex = 550 nm) on a Tecan SpectraFluor Plus plate reader. Untreated cells were set to 100%. IC50 values were calculated by using nonlinear regression (sigmoidal dose–response) with GraphPad Prism. Experiments were carried out with n = 2 in triplicate.

HEK-293 cells [12] = assay: Resazurin-based cell viability assay; design: species or system human; details: HEK-293, 24 h, concentrations up to 100 µM, n = 2 in triplicate
Protocol: as §2

HEK-293 cells [13] = assay: LDH release (membrane integrity) assay; assay type: cell-based, human; details: HEK-293, 1 h incubation, elevated concentrations, CytoTox-One, n = 2 in triplicate
Protocol: Experiments were carried out with n = 2 in triplicate.

[14] = 25 µM CF-labeled peptide, fluorescence microscopy

GLRKRLRKFRNKIKEK-NH2 [sC18, cell-penetrating peptide derived from the C-terminal domain of CAP18 (18 kDa cationic antimicrobial protein), reference compound]
cell viability (previous studies) (HT-29 cells [1]): did not cause any loss of cell viability | cell viability (previous studies) (MCF-7 cells [2]): did not cause any loss of cell viability | uptake into primary cells [3, 14]: hardly any detectable uptake | cellular uptake at 1 µM (MCF-7 cells [4]; 37 °C, OptiMEM): almost failed to internalize | cellular uptake at 1 µM (HT-29 cells [5]; 37 °C, OptiMEM): almost failed to internalize | cellular uptake at 1 µM (HEK-293 cells [6]; 37 °C, OptiMEM): almost failed to internalize | intracellular distribution pattern (HEK-293 cells [7]): punctate uptake pattern

CC[C@H](C)[C@H](NC(=O)[C@H](CCCCN)NC(=O)[C@H](CC(N)=O)NC(=O)[C@H](CCCNC(=N)N)NC(=O)[C@H](Cc1ccccc1)NC(=O)[C@H](CCCCN)NC(=O)[C@H](CCCNC(=N)N)NC(=O)[C@H](CC(C)C)NC(=O)[C@H](CCCNC(=N)N)NC(=O)[C@H](CCCCNC(=O)[C@H](CCCCN)NC(=O)[C@H](CCC(=O)O)NC(=O)[C@H](CCCCN)NC(=O)[C@@H](NC(=O)[C@H](CCCCN)NC(=O)[C@H](CC(N)=O)NC(=O)[C@H](CCCNC(=N)N)NC(=O)[C@H](Cc1ccccc1)NC(=O)[C@H](CCCCN)NC(=O)[C@H](CCCNC(=N)N)NC(=O)[C@H](CC(C)C)NC(=O)[C@H](CCCNC(=N)N)NC(=O)[C@H](CCCCN)NC(=O)[C@H](CCCNC(=N)N)NC(=O)[C@H](CC(C)C)NC(=O)CNC(=O)[C@H](CC(C)C)NC(=O)[C@H](Cc1ccccc1)NC(=O)CNC(=O)CCCc1ccc(N(CCCl)CCCl)cc1)[C@@H](C)CC)NC(=O)[C@H](CCCNC(=N)N)NC(=O)[C@H](CC(C)C)NC(=O)CNC(=O)[C@H](CC(C)C)NC(=O)[C@H](Cc1ccccc1)NC(=O)CNC(=O)CCCc1ccc(N(CCCl)CCCl)cc1)C(=O)N[C@@H](CCCCN)C(=O)N[C@@H](CCC(=O)O)C(=O)N[C@@H](CCCCN)C(N)=O [compound 3] (I: Chlorambucil-GFLGLRKRLRKFRNKIKEK / II: Chlorambucil-GFLGLRKRLRKFRNKIKEK-NH2; amide I:C-II:7)
LDH release compared to the cymantrene conjugates (MCF-7 cells [8]; MCF-7, 1 h incubation, different concentrations (Figure 9)): equal amount of LDH release | IC50 (HT-29 cells [9]): 26 ± 1.2 µM | LDH release compared to the cymantrene conjugates (HT-29 cells [10]; different concentrations (Figure 9)): equal amount of LDH release | IC50 (MCF-7 cells [11]): 8.9 ± 0.3 µM

CC[C@H](C)[C@H](NC(=O)[C@H](CCCCN)NC(=O)[C@H](CC(N)=O)NC(=O)[C@H](CCCNC(=N)N)NC(=O)[C@H](Cc1ccccc1)NC(=O)[C@H](CCCCN)NC(=O)[C@H](CCCNC(=N)N)NC(=O)[C@H](CC(C)C)NC(=O)[C@H](CCCNC(=N)N)NC(=O)[C@H](CCCCNC(=O)[C@H](CCCCN)NC(=O)[C@H](CCC(=O)O)NC(=O)[C@H](CCCCN)NC(=O)[C@@H](NC(=O)[C@H](CCCCN)NC(=O)[C@H](CC(N)=O)NC(=O)[C@H](CCCNC(=N)N)NC(=O)[C@H](Cc1ccccc1)NC(=O)[C@H](CCCCN)NC(=O)[C@H](CCCNC(=N)N)NC(=O)[C@H](CC(C)C)NC(=O)[C@H](CCCNC(=N)N)NC(=O)[C@H](CCCCN)NC(=O)[C@H](CCCNC(=N)N)NC(=O)[C@H](CC(C)C)NC(=O)CN)[C@@H](C)CC)NC(=O)[C@H](CCCNC(=N)N)NC(=O)[C@H](CC(C)C)NC(=O)CN)C(=O)N[C@@H](CCCCN)C(=O)N[C@@H](CCC(=O)O)C(=O)N[C@@H](CCCCN)C(N)=O [(sC18)2] (I: H-GLRKRLRKFRNKIKEK / II: H-GLRKRLRKFRNKIKEK-NH2; amide I:C-II:4)
extracellular LDH (membrane destabilization) (MCF-7 cells [8]; MCF-7, 30 µM, 1 h incubation, in the presence of serum, CytoTox-One): high levels of extracellular LDH | intracellular distribution in primary cells [3, 14]: evenly distributed throughout the cells | uptake into primary cells [3, 14]: bright intracellular fluorescence | cytotoxicity judged by cell morphology ([3]; 25 µM, microscopy): no cytotoxicity | cell viability (HT-29 cells [9]; HT-29, 24 h, resazurin, different concentrations up to 100 µM (Figure 3)): steady decrease of cell viability | cell viability (HEK-293 cells [12]): remained unharmed | cellular uptake at 1 µM (MCF-7 cells [4]; 37 °C, OptiMEM): significant uptake | increase of intracellular fluorescence versus sC18 (MCF-7 cells [4]; MCF-7, CF-labeled peptides, 37 °C, OptiMEM, trypan blue quench, n = 2 in duplicate): ≥ 10 fold | uptake rate at 1 µM compared to sC18 at 10 µM (MCF-7 cells [4]; MCF-7, CF-labeled, p ≤ 0.05): significantly higher | amount taken up by HT-29 cells compared to the other cell lines (HT-29 cells [5]; CF-labeled peptide 10 µM, versus HEK-293 and MCF-7): less than half | cellular uptake at 1 µM (HT-29 cells [5]; 37 °C, OptiMEM): significant uptake | increase of intracellular fluorescence versus sC18 (HT-29 cells [5]; HT-29, CF-labeled peptides, 37 °C, OptiMEM, trypan blue quench, n = 2 in duplicate): ≥ 10 fold | cellular uptake at 1 µM (HEK-293 cells [6]; 37 °C, OptiMEM): significant uptake | increase of intracellular fluorescence versus sC18 (HEK-293 cells [6]; HEK-293, CF-labeled peptides, 37 °C, OptiMEM, trypan blue quench, n = 2 in duplicate): ≥ 10 fold | uptake rate at 1 µM compared to sC18 at 10 µM (HEK-293 cells [6]; HEK-293, CF-labeled, p ≤ 0.05): significantly higher | membrane leakage (LDH release) (HEK-293 cells [13]): only show a little membrane leakage | extracellular LDH levels (HT-29 cells [10]; in the presence of serum, CytoTox-One, compared to MCF-7): much smaller | intracellular distribution pattern (HEK-293 cells [7]): punctate uptake pattern | cell viability (MCF-7 cells [11]; MCF-7, 24 h, resazurin, different concentrations up to 100 µM (Figure 3)): steady decrease of cell viability

I: KLAKLAKKLAKLAKGFLGLRKRLRKFRNKIKEK-NH2 / II: GLRKRLRKFRNKIKEK (amide I:21-II:C) [compound 4]
IC50 (HT-29 cells [9]): 14.3 ± 1.4 µM | IC50 (MCF-7 cells [11]): 3.6 ± 1.5 µM
